From patent US12122782B2, “Crystalline forms of 8-(2-fluorobenzyl)-6-(3-(trifluoromethyl)-1H-1,2,4-triazol-5-yl)imidazo[1,2-a]pyrazine as sGC stimulators” (Tisento Therapeutics Inc., priority 2018, dated 2024)

Assay: Dynamic vapor sorption (DVS) adsorption/desorption
Format: physicochemical
Conditions: up to 95% RH; isothermal at 25° C.; water as solvent
Description: The Adsorption/Desorption determination was performed using a Q5000 V3.3 TGA-SA instrument. […] The ramp was isothermal at 25° C. Water was used as the solvent for all DVS analysis. The data was analyzed with the Universal Analysis 2000 software.

moisture picked up (DVS): less than 0.4%
SMILES: Fc1ccccc1Cc1nc(-c2nc(C(F)(F)F)n[nH]2)cn2ccnc12 [Form A, 8-(2-fluorobenzyl)-6-(3-(trifluoromethyl)-1H-1,2,4-triazol-5-yl)imidazo[1,2-a]pyrazine]
